Source: ChEMBL document CHEMBL4376831, “Enhancing the Cell Permeability of Stapled Peptides with a Cyclic Cell-Penetrating Peptide” (J Med Chem, 2019)
Residue numbers refer to the chain shown, from its start. The source made the active and inactive calls. The calls are words filed in the database; no cut-off is given here. *1 amine or outer side, *2 acyl side, *3 side chain or, on linkers, in order; H or OH if unused. Where a SMILES comes first, the peptide text is derived from it. Bridges are numbered along the chain shown (N, C = ends). Roman numbers before positions name the chains, in order. [ ]: non-standard residue; d: D form. The star is where a group is joined. X1 = O=C(O)c1cc(C(=O)*)ccc1-c1c2ccc(=O)cc-2oc2cc(O)ccc12; 2Nal = N[C@@H](Cc1ccc2ccccc2c1)C(=O)O; mXylylene = c1cc(C[*:1])cc(C[*:2])c1; Dap = NC[C@H](N)C(=O)O; AEEA = NCCOCCOCC(=O)O

Legend:
[1] = biological target: E3 ubiquitin-protein ligase Mdm2 (Homo sapiens, UniProt Q00987); experiment: Displacement of TMR-labelled PDI from human GST tagged MDM2 (1 to 139 residues) expressed in Escherichia coli BL21 (DE3) cells preincuabted for 1 hr with TMR-labelled PDI followed by compound addition and measured after 1 hr by fluorescence polarization assay
E3 ubiquitin-protein ligase Mdm2, sequence (Q00987 whole entry, the tested form may be a part): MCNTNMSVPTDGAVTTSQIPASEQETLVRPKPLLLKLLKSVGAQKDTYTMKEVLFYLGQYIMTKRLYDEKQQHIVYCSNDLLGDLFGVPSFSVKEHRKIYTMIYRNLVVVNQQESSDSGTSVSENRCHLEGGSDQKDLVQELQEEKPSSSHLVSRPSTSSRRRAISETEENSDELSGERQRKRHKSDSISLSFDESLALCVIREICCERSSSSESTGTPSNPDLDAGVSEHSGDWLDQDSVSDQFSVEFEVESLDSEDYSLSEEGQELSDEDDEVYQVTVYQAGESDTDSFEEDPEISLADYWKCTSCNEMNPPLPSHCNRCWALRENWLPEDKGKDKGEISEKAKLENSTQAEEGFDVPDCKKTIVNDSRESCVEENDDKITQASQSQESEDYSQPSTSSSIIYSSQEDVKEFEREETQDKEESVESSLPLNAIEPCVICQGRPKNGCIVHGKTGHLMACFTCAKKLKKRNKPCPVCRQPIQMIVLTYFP

[2] = system: HeLa; experiment: Cytotoxicity against human HeLa cells incubated for 72 hrs using FAM-labeled compound by MTT assay; assay type: cell-based
[3] = system: HeLa; experiment: Induction of cell membrane disruption in human HeLa cells incubated for 4 hrs using FAM-labeled compound by LDH assay; assay type: cell-based
[4] = system: SJSA-1; details: Homo sapiens
[5] = system: SW480; experiment: Induction of apoptosis in human SW480 cells at 25 uM incubated for 48 hrs by Annexin V/propidium iodide-staining based flow cytometric analysis relative to control; assay type: functional
[6] = biological target: T1, Catenin beta-1 (Homo sapiens) (UniProt P35222); experiment: Inhibition of beta-catenin in human SW480 cells assessed as reduction in myc mRNA expression; assay type: cell-based
T1 sequence (whole entry): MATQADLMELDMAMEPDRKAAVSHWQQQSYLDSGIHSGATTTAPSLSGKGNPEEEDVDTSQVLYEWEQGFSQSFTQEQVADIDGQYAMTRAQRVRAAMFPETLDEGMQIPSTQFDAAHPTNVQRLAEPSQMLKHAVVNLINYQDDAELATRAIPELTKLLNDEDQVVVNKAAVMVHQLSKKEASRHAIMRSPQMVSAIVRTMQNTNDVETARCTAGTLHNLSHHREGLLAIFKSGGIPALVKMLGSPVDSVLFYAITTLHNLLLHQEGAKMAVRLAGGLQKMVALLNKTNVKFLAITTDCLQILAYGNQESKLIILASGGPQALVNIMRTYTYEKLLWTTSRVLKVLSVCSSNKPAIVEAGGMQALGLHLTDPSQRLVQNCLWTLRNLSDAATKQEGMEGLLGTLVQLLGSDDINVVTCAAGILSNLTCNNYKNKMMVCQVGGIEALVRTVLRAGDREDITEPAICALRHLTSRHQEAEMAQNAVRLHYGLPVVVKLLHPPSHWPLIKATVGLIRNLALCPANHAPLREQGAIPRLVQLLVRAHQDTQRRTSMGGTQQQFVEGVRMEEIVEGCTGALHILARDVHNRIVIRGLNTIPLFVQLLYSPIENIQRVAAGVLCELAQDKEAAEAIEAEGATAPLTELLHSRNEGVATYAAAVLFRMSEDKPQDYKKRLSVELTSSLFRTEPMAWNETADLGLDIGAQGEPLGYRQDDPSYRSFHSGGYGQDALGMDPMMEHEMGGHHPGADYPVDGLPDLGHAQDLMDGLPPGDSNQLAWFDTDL

[7] = biological target: T1, Catenin beta-1 (Homo sapiens); experiment: Inhibition of beta-catenin in human HCT116 cells assessed as reduction in LGR5 protein expression; assay type: cell-based
[8] = biological target: T1, Catenin beta-1 (Homo sapiens); experiment: Inhibition of beta-catenin in human HCT116 cells assessed as reduction in axin2 protein expression; assay type: cell-based
[9] = biological target: T1, Catenin beta-1 (Homo sapiens); experiment: Inhibition of beta-catenin in human SW480 cells assessed as reduction in LGR5 mRNA expression; assay type: cell-based
[10] = system: SW480; experiment: Antiproliferative activity against human SW480 cells incubated for 72 hrs by MTT assay relative to control; assay type: functional
[11] = system: SW480; experiment: Induction of cell membrane disruption in human SW480 cells up to 50 uM incubated for 4 hrs by LDH assay relative to control; assay type: functional, cell-based
[12] = biological target: T1, Catenin beta-1 (Homo sapiens); experiment: Inhibition of beta-catenin in human HCT116 cells assessed as reduction in LGR5 mRNA expression; assay type: cell-based
[13] = system: DLD-1; experiment: Induction of apoptosis in human DLD1 cells at 25 uM incubated for 48 hrs by Annexin V/propidium iodide-staining based flow cytometric analysis relative to control; assay type: functional
[14] = biological target: T1, Catenin beta-1 (Homo sapiens); experiment: Inhibition of beta-catenin in human HCT116 cells assessed as reduction in myc mRNA expression; assay type: cell-based
[15] = biological target: T1, Catenin beta-1 (Homo sapiens); experiment: Inhibition of beta-catenin in human SW480 cells assessed as reduction in LGR5 protein expression; assay type: cell-based
[16] = biological target: T1, Catenin beta-1 (Homo sapiens); experiment: Inhibition of beta-catenin in human HCT116 cells assessed as reduction in axin2 mRNA expression; assay type: cell-based
[17] = system: SW480; experiment: Antiproliferative activity against human SW480 cells incubated for 72 hrs by MTT assay; assay type: functional, cell-based
[18] = biological target: T1, Catenin beta-1 (Homo sapiens); experiment: Inhibition of beta-catenin in human SW480 cells assessed as reduction in myc protein expression; assay type: cell-based
[19] = system: MCF7; experiment: Antiproliferative activity against human MCF7 cells up to 20 uM incubated for 72 hrs by MTT assay; assay type: functional, cell-based
[20] = biological target: T1, Catenin beta-1 (Homo sapiens); experiment: Inhibition of beta-catenin in human SW480 cells assessed as reduction in axin2 protein expression; assay type: cell-based
[21] = biological target: T1, Catenin beta-1 (Homo sapiens); experiment: Inhibition of beta-catenin in human SW480 cells assessed as reduction in axin2 mRNA expression; assay type: cell-based
[22] = biological target: T1, Catenin beta-1 (Homo sapiens); experiment: Inhibition of beta-catenin in human HCT116 cells assessed as reduction in myc protein expression; assay type: cell-based
[23] = Half life in human serum at 100 uM measured up to 24 hrs by RP-HPLC analysis; assay type: ADME, cell-free
[24] = system: SW480; experiment: Antiproliferative activity against human SW480 cells at 20 uM incubated for 72 hrs by MTT assay; assay type: functional, cell-based
[25] = biological target: T2, Catenin beta-1 (Mus musculus, UniProt Q02248); experiment: Binding affinity to mouse GST tagged beta catenin (133 to 665 residues) expressed in Escherichia coli BL21 (DE3) cells incubated for 1 hr
T2 sequence (Q02248 whole entry): T1 sequence (whole entry) with P706A

Q: With `CC(=O)N[C@@H](CC(C)C)C(=O)N[C@H](C(=O)N[C@@H](C)C(=O)N[C@H]1CC(=O)NCCCC[C@@H](C(=O)N[C@@H](CCC(N)=O)C(=O)N[C@@H](CC(C)C)C(=O)N[C@H](C(=O)N[C@@H](CO)C(=O)NCCOCCOCC(=O)N[C@@H](CCCCNC(=O)CC[C@@H]2NC(=O)[C@@H](CCCNC(=N)N)NC(=O)[C@H](CCCNC(=N)N)NC(=O)[C@@H](CCCNC(=N)N)NC(=O)[C@H](CCCNC(=N)N)NC(=O)[C@H](Cc3ccc4ccccc4c3)NC(=O)[C@@H](Cc3ccccc3)NC2=O)C(N)=O)[C@@H](C)O)NC(=O)[C@H](Cc2c[nH]c3ccccc23)NC(=O)[C@H](Cc2ccc(O)cc2)NC(=O)[C@H](Cc2cnc[nH]2)NC1=O)[C@@H](C)O` as the compound, how does the IC50 [1] read?
A: The IC50 was > 20 µM.

Q: And the Activity [2]?
A: Its Activity is “Toxic”.

Q: What about the Activity [3] of the same compound?
A: Its Activity is “Toxic”.

Q: What about the Activity [4] of the same compound?
A: The Activity was “inactive”.

Q: For `CC[C@H](C)[C@@H]1NC(=O)[C@@H](NC(=O)[C@H](CCC(=O)O)NC(=O)[C@@H]2CCCN2C(=O)[C@H](Cc2ccc(O)cc2)NC(=O)CNC(=O)CNC(C)=O)CC(=O)NCCCC[C@@H](C(=O)N[C@@H](Cc2cnc[nH]2)C(=O)N[C@@H](CC(C)C)C(=O)N[C@@H](CCC(N)=O)C(=O)N[C@@H](CCCNC(=N)N)C(=O)N[C@H](C(=O)N[C@H](C(=O)N[C@@H](CC(C)C)C(=O)NCCOCCOCC(=O)NCCOCCOCC(=O)N[C@@H](CNC(=O)CC[C@@H]2NC(=O)[C@@H](CCCNC(=N)N)NC(=O)[C@H](CCCNC(=N)N)NC(=O)[C@@H](CCCNC(=N)N)NC(=O)[C@H](CCCNC(=N)N)NC(=O)[C@H](Cc3ccc4ccccc4c3)NC(=O)[C@@H](Cc3ccccc3)NC2=O)C(N)=O)[C@@H](C)CC)C(C)C)NC(=O)[C@H](CC(=O)O)NC(=O)[C@H](CC(C)C)NC1=O` (I: Ac-GGYPEDILDKHLQRVIL[AEEA][AEEA][Dap]-NH2 / II: cyclo([2Nal]R[dR]R[dR]E[dF]); lactam I:6-I:10; amide I:20-II:6), which Activity [5] is on record?
A: Its Activity is 10%.

Q: And the inhibition [6]?
A: The inhibition was “Active”.

Q: What about the inhibition [7] of the same compound?
A: The inhibition was “Active”.

Q: And the inhibition [8]?
A: Its inhibition is “Active”.

Q: And the inhibition [9]?
A: Its inhibition is “Active”.

Q: And the Activity [10]?
A: Its Activity is 60%.

Q: What about the Activity [11] of the same compound?
A: The Activity was “inactive”.

Q: What about the inhibition [12] of the same compound?
A: The inhibition was “Active”.

Q: And the Activity [13]?
A: Its Activity is 10%.

Q: What about the inhibition [14] of the same compound?
A: The inhibition was “Active”.

Q: And the inhibition [15]?
A: The inhibition was “Active”.

Q: What about the inhibition [16] of the same compound?
A: Its inhibition is “Active”.

Q: What about the Activity [17] of the same compound?
A: Its Activity is “Dose-dependent effect”.

Q: What about the EC50 ([17]; SW480, 72 h) of the same compound?
A: Its EC50 is 1.2 µM.

Q: And the inhibition [18]?
A: Its inhibition is “Active”.

Q: And the Activity [19]?
A: Its Activity is “inactive”.

Q: And the inhibition [20]?
A: Its inhibition is “Active”.

Q: What about the inhibition [21] of the same compound?
A: Its inhibition is “Active”.

Q: What about the inhibition [22] of the same compound?
A: The inhibition was “Active”.

Q: What about the half-life at 100 µM [23] of the same compound?
A: The half-life at 100 µM was 2 h.

Q: For `CC[C@H](C)[C@@H]1NC(=O)[C@@H](NC(=O)[C@H](CCC(=O)O)NC(=O)[C@@H]2CCCN2C(=O)[C@H](Cc2ccc(O)cc2)NC(=O)CNC(=O)CNC(=O)c2ccc(-c3c4ccc(=O)cc-4oc4cc(O)ccc34)c(C(=O)O)c2)CSCc2cccc(c2)CSC[C@@H](C(=O)N[C@@H](Cc2cnc[nH]2)C(=O)N[C@@H](CC(C)C)C(=O)N[C@@H](CCC(N)=O)C(=O)N[C@@H](CCCNC(=N)N)C(=O)N[C@H](C(=O)N[C@H](C(=O)N[C@@H](CC(C)C)C(N)=O)[C@@H](C)CC)C(C)C)NC(=O)[C@H](CC(=O)O)NC(=O)[C@H](CC(C)C)NC1=O` (X1-GGYPECILDCHLQRVIL-NH2; linker 6-10 via mXylylene), which Activity [24] is on record?
A: Its Activity is “Active”.

Q: And the Kd [25]?
A: Its Kd is 0.018 µM.
